How the values were obtained:
Tlp11-LBD N268A = assay: MST of Tlp11-LBD mutant N268A; assay type: binding, C. jejuni ATCC 33560; settings: max ligand 2.5 mM
Description: (§1) The His-tag dye (MO-L018 RED-tris-NTA, NanoTemper, Germany) was adjusted to a final concentration of 25 nM and used to label the purified protein with a His-tag. The compound was diluted to a series of concentrations in phosphate-buffered saline ([Duan et al., 2023]) with 0.05% Tween 20 (PBS-T) buffer and mixed in a ratio of 1:1 with protein. The mixtures were loaded into capillaries (Monolith™ Series capillaries, NanoTemper) by means of capillary action. Thermophoresis was measured using a Monolith™ NT.115 (NanoTemper) instrument, with 40% excitation and 40% MST power configuration. The time-traces of changes in fluorescence, which reflected the thermophoretic movement of labeled protein affected by different concentrations of compound were recorded, and the dose–response curves were fitted with the ‘temperature jump and thermophoresis’ mode. Data analysis was performed using MO. Affinity Analysis version 2.3 (NanoTemper) and Prism version 8.0.2 (GraphPad Software, United States).
(§2) In order to confirm the contribution of L264, N268, I276, Y291, V318, and T320 to the binding to methyl pyruvate, we generated Tlp11-LBD proteins with an alanine point mutation at individual residues, to obtain the mutant proteins L264A, N268A, I276A, Y291A, V318A, and T320A, and then analyzed the binding affinities of methyl pyruvate to these mutants using MST. […]

Tlp11-LBD V318A = assay: MST of Tlp11-LBD mutant V318A; assay type: binding, C. jejuni ATCC 33560; settings: max ligand 2.5 mM
Description: as §1, §2

[1] = target: Tlp11-LBD homologue (WP_199770133.1, residues 31-330); assay: MST of Tlp11-LBD homologue; assay type: binding, Helicobacter mesocricetorum; settings: H. mesocricetorum LBD
Description: as §1
(§3) To evaluate whether these potential Tlp11-LBD homologues could bind to methyl pyruvate, we conducted a structural analysis of the LBDs of six chemoreceptors from C. coli, H. equorum, H. himalayensis, H. mesocricetorum, H. ganmani, and C. upsaliensis using Alphafold 2. […]

[2] = target: Tlp11-LBD homologue (WP_257425542.1, residues 31-331); assay: MST of Tlp11-LBD homologue; assay type: binding, Campylobacter upsaliensis; settings: C. upsaliensis LBD
Description: as §1, §3

[3] = system: C. jejuni NCTC 11168ΩTlp11 cells; assay type: cell-based, Campylobacter jejuni; settings: 11168ΩTlp11 cells; microfluidic device, 30 min
C. jejuni ATCC 33560 = assay: Growth curves in Minimal Essential Medium; assay type: cell-based, Campylobacter jejuni; settings: Minimal Essential Medium with fetal bovine serum, shaking; methyl pyruvate at concentrations above 1 mM
Description: The C. jejuni ATCC 33560, C. jejuni WT NCTC 11168 and 11168ΩTlp11 cells were grown on a MH agar plate overnight, at 37°C, under microaerobic conditions. The colonies were suspended in PBS ([Duan et al., 2023]), pH 7.2, inoculated into Minimal Essential Medium broth (Life Technologies) containing 10% fetal bovine serum to an initial OD600 of 0.01, and grown at 37°C, 100 rpm, under microaerobic conditions. When required, Minimal Essential Medium was supplemented with different concentrations of methyl pyruvate or pyruvate (both from Macklin, China).

[4] = system: pin-head Tar (Tar without LBD) or WT Tar; assay: Microfluidic chemotaxis of E. coli expressing pin-head Tar or WT Tar; assay type: cell-based, E. coli VS188; settings: microfluidic device, 50 min
[5] = system: Tlp11[1-343]-PhoQ[202-486] (Tlp343PhoQ202); assay: Hybrid kinase Tlp11-PhoQ GFP reporter assay; assay type: cell-based, E. coli MG1655/ΔPhoQ; settings: stimulation for 40 min
Description: (§4) The reporter plasmid pUA66-PmgtLA-GFP and the plasmid encoding the hybrid kinase were together transformed into E. coli MG1655/ΔPhoQ strain. E. coli cells containing the reporter and Tlp11-PhoQ chimera were incubated in Medium A, at 37°C, with shaking (200 rpm), until an OD600 of 0.4 was attained, following which different concentrations of methyl pyruvate were added to the medium and the cells were incubated for 40 min. The fluorescence intensity of the cells was monitored using a plate reader (Varioskan™ LUX, Life Technologies) equipped with a 488 nm laser and a 528/12 bandpass filter. The acquired data were analyzed using Prism 8.0.2.
(§5) To construct the signal input module, we fused the Tlp11-LBD with the PhoQ cytoplasmic region, to design the Tlp11-PhoQ hybrid kinases (Supplementary Figure S6), Tlp11[1-337]-PhoQ[200-486] (Tlp337PhoQ200), Tlp11[1-339]-PhoQ[200-486] (Tlp339PhoQ200), Tlp11[1-339]-PhoQ[201-486] (Tlp339PhoQ201), Tlp11[1-340]-PhoQ[202-486] (Tlp340PhoQ202), Tlp11[1-340]-PhoQ[200-486] (Tlp340PhoQ200), Tlp11[1-341]-PhoQ[202-486] (Tlp341PhoQ202), Tlp11[1-342]-PhoQ[[…]] (Tlp342PhoQ202), Tlp11[1-343]-PhoQ[202-486] (Tlp343PhoQ202), which connected Tlp11 and PhoQ in TM2 (Supplementary Figure S7C). The activity of each chimera in sensing methyl pyruvate was determined by measuring the fluorescence intensity of GFP in the E. coli MG1655/ΔPhoQ strain.

[6] = system: full-length PhoQ or an empty vector; assay: GFP reporter assay, control cells; assay type: cell-based, E. coli MG1655/ΔPhoQ; settings: 40 min
Description: as §4, §5

COC(=O)C(C)=O [methyl pyruvate, Methyl pyruvate]
Kd (binding curve fit) (Tlp11-LBD N268A): unable to obtain fitted Kd values
Kd (binding curve fit) (Tlp11-LBD V318A): unable to obtain fitted Kd values
Kd [1]: 1200 ± 400 µM
Kd [2]: 1900 ± 500 µM
chemotactic response [3]: robust attractant response
effect on growth of C. jejuni ATCC 33560 (C. jejuni ATCC 33560): significantly promoted the growth
chemotactic response of E. coli expressing pin-head Tar or WT Tar as the sole chemoreceptor [4]: no response or a much weaker response
response (GFP fluorescence intensity) of Tlp343PhoQ202 [5]: significant concentration-dependence
response (GFP fluorescence intensity) of control cells [6]: almost no response

Source: article PMC11111895, “Identification of a dCache-type chemoreceptor in Campylobacter jejuni that specifically mediates chemotaxis towards methyl pyruvate” (Frontiers in Microbiology, 2024)
